Test results published in patent US20220016101A1 (ACADIA Pharmaceuticals Inc., priority 2018, published 2022).

System: patients with MDD and an inadequate response to an SSRI or SNRI
Test: Massachusetts General Hospital Sexual Functioning Index (MGH-SFI), Study ACP-103-042
Assay type: in vivo, human
Set-up: key to MGH-SFI Ability to Get Sexually Aroused or Excited, treatment effect size / MGH-SFI Ability to Achieve Orgasm, treatment effect size / MGH-SFI Overall Sexual Satisfaction, treatment effect size: Cohen's d = LS mean difference (PIM vs PBO) / SD
Excerpt: “Massachusetts General Hospital Sexual Functioning Index (MGH-SFI)” is described, for instance, in Labbate and Lare, 2001, Psychother Psychosom. 70(4):221-225. This is a patient facing questionnaire that quantifies sexual dysfunction into 5 functional domains (“interest in sex,” “sexual arousal,” “ability to achieve orgasm,” “ability to maintain erection” (males only), and “sexual satisfaction”). Patients rate each item using a 6-point scale ranging from 1 (good function) to 6 (poor function). High scores indicate poor sexual functioning. […] The determination of the subject's status and eligibility for randomization in Stage 2 was made in a double-blind manner. […] Sexual functioning was assessed using the Massachusetts General Hospital Sexual Functioning Index or MGH-SFI (Labbate and Lare, 2001, Psychother Psychosom. 70(4):221-225). This is a patient facing questionnaire that quantifies sexual dysfunction into 5 functional domains (“interest in sex,” “sexual arousal,” “ability to achieve orgasm,” “ability to maintain erection” [malesonly], and “sexual satisfaction”). Patients rate each item using a 6-point scale ranging from 1 (good function) to 6 (poor function). The time frame for this scale is the past month. This scale was administered at baseline and Week 5 in both stages of the study. High scores indicate poor sexual functioning. In ACP-103-042 the mean scores for MGH-SFI at Baseline was calculated over all 5 domains for males and the 4 domains for females. For MGH-SFI (follow-up version) at Study Weeks 5 and 10, the mean was calculated in the same way as MGH-SFI at Baseline. […] Tables 10-27 summarize the detailed data of MGH-SFI individual items of the overall study group (Tables 10-15), the subgroup of age of <=50 (Tables 16-21) and the subgroup of age of >50 (Table 21-26). In Tables 9-26, ANCOVA=analysis of covariance; OC=observed cases; LSM=least squares mean; CI=confidence interval; SD=standard deviation; SE=standard error. Stage 1: Baseline=Study Week 0, Week 5=Study Week 5; Stage 2: Baseline=Study Week 5, Week 5=Study Weeks 10. LSM from the stage-specific ANCOVA analysis with the change from baseline as the outcome, treatment group as a factor, and the corresponding Baseline value as a covariate. 2-sided p-value for treatment difference from the stage-specific ANCOVA analysis. An treatment effect size (Cohen's d) is calculated using the formula: Effect Size=Least Square mean difference between PIM and PBO/SD. The corresponding 95% confidence interval for an effect size is calculated based on the theoretical probability distribution of the effect size. […] Tables 10-15 and 28-38 summarize the detailed data of MGH-SFI individual items of the overall study group (Tables 10-15), the female subgroup (Tables 33-37) and the male subgroup (Table 38-43). An treatment effect size (Cohen's d) is calculated using the formula: Effect Size=Least Square mean difference between PIM and PBO/SD. The corresponding 95% confidence interval for an effect size is calculated based on the theoretical probability distribution of the effect size. In Tables 10-15 and 28-38, ANCOVA=analysis of covariance; OC=observed cases; LSM=least squares mean; CI=confidence interval; SD=standard deviation; SE=standard error. Stage 1: Baseline=Study Week 0, Week 5=Study Week 5; Stage 2: Baseline=Study Week 5, Week 5=Study Weeks 10. LSM from the stage-specific ANCOVA analysis with the change from baseline as the outcome, treatment group as a factor, and the corresponding Baseline value as a covariate. 2-sided p-value for treatment difference from the stage-specific ANCOVA analysis. An treatment effect size (Cohen's d) is calculated using the formula: Effect Size=Least Square mean difference between PIM and PBO/SD. The corresponding 95% confidence interval for an effect size is calculated based on the theoretical probability distribution of the effect size.

[1] = Stage 1, Overall Study Group, 34 mg QD + SSRI/SNRI
[2] = Stage 1, Subgroup of <=50 Years
[3] = Stage 1, Subgroup of <=50 Years Old
[4] = Stage 1, Subgroup of <=50 Years Old, 34 mg QD + SSRI/SNRI

## CC(C)COc1ccc(CNC(=O)N(Cc2ccc(F)cc2)C2CCN(C)CC2)cc1 [pimavanserin, N-(4-Fluorophenylmethyl)-N-(1-methylpiperidin-4-yl)-N′-(4-(2-methylpropyloxy)phenylmethyl)carbamide]
Stage 1
  MGH-SFI Items mean change stratified by age >50 or ≤50 years vs placebo: differences were only significant for the age >50 years subgroup
  MGH-SFI treatment effect size for pimavanserin compared to placebo: 0.614
Stage 1, Overall Study Group
  MGH-SFI 01: Interest in Sex, Change from Baseline to Week 5 Mean (SE): −0.9 (0.23)
  MGH-SFI 01: Interest in Sex, Change from Baseline to Week 5 Median: −1.0
  MGH-SFI 01: Interest in Sex, Effect Size (Cohen's d): 0.483
  MGH-SFI 01: Interest in Sex, Week 5 Median: 4.0
  MGH-SFI 02: Ability to Get Sexually Aroused or Excited, Change from Baseline to Week 5 Mean (SE): −0.8 (0.17)
  MGH-SFI 02: Ability to Get Sexually Aroused or Excited, Change from Baseline to Week 5 Median: −1.0
  MGH-SFI 02: Ability to Get Sexually Aroused or Excited, Effect Size (Cohen's d): 0.560
  MGH-SFI 02: Ability to Get Sexually Aroused or Excited, Week 5 Median: 4.0
  MGH-SFI 03: Ability to Achieve Orgasm, Change from Baseline to Week 5 Mean (SE): −1.0 (0.24)
  MGH-SFI 03: Ability to Achieve Orgasm, Change from Baseline to Week 5 Median: 0.0
  MGH-SFI 03: Ability to Achieve Orgasm, Effect Size (Cohen's d): 0.609
  MGH-SFI 03: Ability to Achieve Orgasm, Week 5 Median: 4.0
  MGH-SFI 04: (Men) Ability to Get and Maintain an Erection, Change from Baseline to Week 5 Mean (SE): −0.3 (0.78)
  MGH-SFI 04: (Men) Ability to Get and Maintain an Erection, Change from Baseline to Week 5 Median: 0.0
  MGH-SFI 04: (Men) Ability to Get and Maintain an Erection, Effect Size (Cohen's d): 0.105
  MGH-SFI 04: (Men) Ability to Get and Maintain an Erection, Week 5 Median: 3.0
  MGH-SFI 05: Overall Sexual Satisfaction, Change from Baseline to Week 5 Mean (SE): −0.8 (0.25)
  MGH-SFI 05: Overall Sexual Satisfaction, Change from Baseline to Week 5 Median: 0.0
  MGH-SFI 05: Overall Sexual Satisfaction, Effect Size (Cohen's d): 0.524
  MGH-SFI 05: Overall Sexual Satisfaction, Week 5 Median: 4.0
  MGH-SFI 06: Overall Improvement Since Last Medication Change, Effect Size (Cohen's d): 0.539
  MGH-SFI 06: Overall Improvement Since Last Medication Change, Week 5 Median: 4.0
[1]
  MGH-SFI 01: Interest in Sex, Week 5 Mean (SE): 3.8 (0.27)
  MGH-SFI 02: Ability to Get Sexually Aroused or Excited, Week 5 Mean (SE): 3.7 (0.26)
  MGH-SFI 03: Ability to Achieve Orgasm, Week 5 Mean (SE): 3.8 (0.26)
  MGH-SFI 04: (Men) Ability to Get and Maintain an Erection, Week 5 Mean (SE): 3.9 (0.70)
  MGH-SFI 05: Overall Sexual Satisfaction, Week 5 Mean (SE): 3.9 (0.27)
  MGH-SFI 06: Overall Improvement Since Last Medication Change, Week 5 Mean (SE): 3.2 (0.17)
[2]
  MGH-SFI 01: Interest in Sex, Change from Baseline to Week 5 Mean (SE): −0.7 (0.45)
  MGH-SFI 01: Interest in Sex, Change from Baseline to Week 5 Median: 0.0
  MGH-SFI 01: Interest in Sex, Effect Size (Cohen's d): 0.347
  MGH-SFI 01: Interest in Sex, Week 5 Median: 3.0
[3]
  MGH-SFI 02: Ability to Get Sexually Aroused or Excited, Change from Baseline to Week 5 Mean (SE): −0.5 (0.27)
  MGH-SFI 02: Ability to Get Sexually Aroused or Excited, Change from Baseline to Week 5 Median: 0.0
  MGH-SFI 02: Ability to Get Sexually Aroused or Excited, Effect Size (Cohen's d): 0.447
  MGH-SFI 02: Ability to Get Sexually Aroused or Excited, Week 5 Median: 3.0
  MGH-SFI 03: Ability to Achieve Orgasm, Change from Baseline to Week 5 Mean (SE): −0.8 (0.36)
  MGH-SFI 03: Ability to Achieve Orgasm, Change from Baseline to Week 5 Median: 0.0
  MGH-SFI 03: Ability to Achieve Orgasm, Effect Size (Cohen's d): 0.352
  MGH-SFI 03: Ability to Achieve Orgasm, Week 5 Median: 4.0
[4]
  MGH-SFI 02: Ability to Get Sexually Aroused or Excited, Week 5 Mean (SE): 3.4 (0.42)
  MGH-SFI 03: Ability to Achieve Orgasm, Week 5 Mean (SE): 3.8 (0.42)
Stage 1, Subgroup of <=50 Years, 34 mg QD + SSRI/SNRI
  MGH-SFI 01: Interest in Sex, Week 5 Mean (SE): 3.5 (0.45)
Stage 1, female subgroup
  MGH-SFI Ability to Achieve Orgasm, treatment effect size: 0.749
  MGH-SFI Ability to Get Sexually Aroused or Excited, treatment effect size: 0.616
  MGH-SFI Interest in Sex, treatment effect size: 0.561
  MGH-SFI Overall Improvement Since Last Medication Change, treatment effect size: 0.634
  MGH-SFI Overall Sexual Satisfaction, treatment effect size: 0.627
Stage 1, patients with or without remission
  MGH-SFI effects vs placebo when assessed by MDD remission status: robust and significant effects
Stage 2
  MGH-SFI treatment effect size for pimavanserin compared to placebo: 0.412
Stage 2, Overall Study Group
  MGH-SFI 01: Interest in Sex, Change from Baseline to Week 5 Mean (SE): −0.4 (0.16)
  MGH-SFI 01: Interest in Sex, Change from Baseline to Week 5 Median: 0.0
  MGH-SFI 01: Interest in Sex, Effect Size (Cohen's d): 0.227
  MGH-SFI 01: Interest in Sex, Week 5 Median: 4.0
  MGH-SFI 02: Ability to Get Sexually Aroused or Excited, Change from Baseline to Week 5 Mean (SE): −0.4 (0.16)
  MGH-SFI 02: Ability to Get Sexually Aroused or Excited, Change from Baseline to Week 5 Median: 0.0
  MGH-SFI 02: Ability to Get Sexually Aroused or Excited, Effect Size (Cohen's d): −0.025
  MGH-SFI 02: Ability to Get Sexually Aroused or Excited, Week 5 Median: 4.5
  MGH-SFI 03: Ability to Achieve Orgasm, Change from Baseline to Week 5 Mean (SE): −0.4 (0.18)
  MGH-SFI 03: Ability to Achieve Orgasm, Change from Baseline to Week 5 Median: 0.0
  MGH-SFI 03: Ability to Achieve Orgasm, Effect Size (Cohen's d): 0.300
  MGH-SFI 03: Ability to Achieve Orgasm, Week 5 Median: 5.0
  MGH-SFI 04: (Men) Ability to Get and Maintain an Erection, Change from Baseline to Week 5 Mean (SE): −1.0 (0.41)
  MGH-SFI 04: (Men) Ability to Get and Maintain an Erection, Change from Baseline to Week 5 Median: −1.0
  MGH-SFI 04: (Men) Ability to Get and Maintain an Erection, Effect Size (Cohen's d): 0.701
  MGH-SFI 04: (Men) Ability to Get and Maintain an Erection, Week 5 Median: 4.0
  MGH-SFI 05: Overall Sexual Satisfaction, Change from Baseline to Week 5 Mean (SE): −0.7 (0.25)
  MGH-SFI 05: Overall Sexual Satisfaction, Change from Baseline to Week 5 Median: −0.5
